From patent US4966891A, “Fluorocytidine derivatives” (priority 1987, dated 1990)

Experiments:
in vivo = conditions: mouse, po
Sarcoma 180 [1] = experiment: Antitumor testing against Sarcoma 180 (oral, s.c. implanted); assay type: in vivo, mice; conditions: Mus musculus, 336 h, day 14, read-out: Inhibition of tumor growth; for inhibition in vivo at 1500 µmol/kg: 1.5 mmole/kg/day × 7, p.o.; for inhibition in vivo at 3000 µmol/kg: 3.0 mmole/kg/day × 7, p.o.; for inhibition in vivo at 500 µmol/kg: 0.5 mmole/kg/day × 7, p.o.; for inhibition in vivo at 1400 µmol/kg: 1.4 mmole/kg/day × 7, p.o.; for inhibition in vivo at 2700 µmol/kg: 2.7 mmole/kg/day × 7, p.o.; for inhibition in vivo at 800 µmol/kg: 0.8 mmole/kg/day × 7, p.o.
Protocol: (§1) Sarcoma 180 cells (2×10^6 cells) were implanted subcutaneously into mice (20-22 g) on day 0. The compounds of the present invention were administered daily from day 1 through 7 orally. The animals were sacrificed on day 14 and tumors were excised and weighed. The percent inhibition of tumor growth given in Table 1 below was calculated from the formula:
(§2) T=weight of the tumors from the treated group, C=weight of the tumors from the control group.

Meth A fibrosarcoma [2] = experiment: Antitumor testing against Meth A fibrosarcoma (oral, s.c. implanted); assay type: in vivo, mice; conditions: Mus musculus, read-out: Inhibition of tumor growth; for inhibition in vivo at 1500 µmol/kg: 1.5 mmole/kg/day × 7, p.o.; for inhibition in vivo at 3000 µmol/kg: 3.0 mmole/kg/day × 7, p.o.; for inhibition in vivo at 800 µmol/kg: 0.8 mmole/kg/day × 7, p.o.
Protocol: as §1, §2
(§3) Meth A fibrosarcoma cells (2×10^5 cells) were implanted subcutaneously into mice (21-22 g). The testing against Meth A fibrosarcoma and the calculation of the percent inhibition of tumor growth were effected according to a manner analogous to that of the testing against Sarcoma 180.

[3] = Fecal observation on Day 8 and toxicity in the comparative Meth A study
Protocol: (§4) The comparative study on antitumor activity of a representative compound (Example 3) of the present invention with 5'-deoxy-5-fluorouridine was performed according to a manner analogous to that of the antitumor testing against Meth A fibrosarcoma.

Meth A fibrosarcoma [4] = experiment: Comparative study on antitumor activity against Meth A fibrosarcoma with 5'-deoxy-5-fluorouridine; assay type: in vivo, mice
Protocol: as §3, §4

UV 2237 fibrosarcoma = experiment: Comparative antitumor testing against UV 2237 fibrosarcoma; assay type: in vivo, murine / mice; conditions: p.o. daily × 7, Day 14
Description: (§5) Mice were inoculated subcutaneously with Sarcoma 180, Meth A fibrosarcoma and UV 2237 fibrosarcoma, respectively at Day 0. The mice were then orally administered with the compounds daily for 7 times from Day 1. The efficacy
(§6) was expressed as therapeutic indices (EDmax /ED50) measured at Day 14 after the tumor inoculation, where EDmax is a dose showing maximum inhibition of tumor growth.

Sarcoma 180 [5] = experiment: Comparative antitumor testing against Sarcoma 180; assay type: in vivo, murine / mice; conditions: p.o. daily × 7, Day 14
Description: as §5, §6

Meth A fibrosarcoma [6] = experiment: Comparative antitumor testing against Meth A fibrosarcoma; assay type: in vivo, murine / mice; conditions: p.o. daily × 7, Day 14
Description: as §5, §6

Work on `CCCCCCCC(=O)Nc1nc(=O)n([C@@H]2O[C@H](C)[C@@H](O)[C@H]2O)cc1F` [Example 5, 5'-deoxy-5-fluoro-N^4-octanoylcytidine] yielded an LD50 (in vivo) greater than 2000 mg/kg, an inhibition in vivo at 1100 µmol/kg (Sarcoma 180 [1]; 1.1 mmole/kg/day × 7, p.o.) of 62% and an inhibition in vivo at 2200 µmol/kg (Sarcoma 180 [1]; 2.2 mmole/kg/day × 7, p.o.) of 82%.

`CC(C)CC(=O)Nc1nc(=O)n([C@@H]2O[C@H](C)[C@@H](O)[C@H]2O)cc1F` [Example 47, 5'-deoxy-5-fluoro-N^4-isovalerylcytidine] gave an LD50 (in vivo) greater than 2000 mg/kg, an inhibition in vivo at 1500 µmol/kg (Meth A fibrosarcoma [2]) of 29% and an inhibition in vivo at 3000 µmol/kg (Meth A fibrosarcoma [2]) of 59%.

Work on `COc1ccc(C(=O)Nc2nc(=O)n([C@@H]3O[C@H](C)[C@@H](O)[C@H]3O)cc2F)cc1` [Example 24] yielded an LD50 (in vivo) greater than 2000 mg/kg, an inhibition in vivo at 1500 µmol/kg (Sarcoma 180 [1]) of 63% and an inhibition in vivo at 3000 µmol/kg (Sarcoma 180 [1]) of 94%.

Compound `CCCCCCCCOC(=O)Nc1nc(=O)n([C@@H]2O[C@H](C)[C@@H](O)[C@H]2O)cc1F` [Example 41, 5'-deoxy-5-fluoro-N^4-(octyloxycarbonyl)cytidine] has an inhibition in vivo at 500 µmol/kg (Sarcoma 180 [1]) of -18% and an inhibition in vivo at 1500 µmol/kg (Sarcoma 180 [1]) of 36%.

With `CCCCCCCCCCCCCCCC(=O)Nc1nc(=O)n([C@@H]2O[C@H](C)[C@@H](O)[C@H]2O)cc1F` [Example 7, 5'-deoxy-5-fluoro-N^4-hexadecanoylcytidine] the inhibition in vivo at 1400 µmol/kg (Sarcoma 180 [1]) was 57% and the inhibition in vivo at 2700 µmol/kg (Sarcoma 180 [1]) was 84%.

`C[C@H]1O[C@@H](n2cc(F)c(NC(=O)OCc3ccccc3)nc2=O)[C@H](O)[C@@H]1O` [Example 42, N^4-(benzyloxycarbonyl)-5'-deoxy-5-fluorocytidine] gave an inhibition in vivo at 500 µmol/kg (Sarcoma 180 [1]) of 0% and an inhibition in vivo at 1500 µmol/kg (Sarcoma 180 [1]) of 36%.

For `COc1cc(C(=O)Nc2nc(=O)n([C@@H]3O[C@H](C)[C@@H](O)[C@H]3O)cc2F)cc(OC)c1OC` [Example 3, 5'-deoxy-5-fluoro-N^4-(3,4,5-trimethoxybenzoyl)cytidine], the diarrhea ([3]; mouse, in vivo) was “did not cause diarrhea”, the “toxicity compared with 5'-deoxy-5-fluorouridine” value ([3]; words) was “less toxic than 5'-deoxy-5-fluorouridine” and the “Inhibition of tumor growth” value (Meth A fibrosarcoma [4]; 0.4 mmole/kg/day × 7) was -27%. For the same compound, the “Inhibition of tumor growth” value (Meth A fibrosarcoma [4]; 0.8 mmole/kg/day × 7) was 20%, the “Inhibition of tumor growth” value (Meth A fibrosarcoma [4]; 1.5 mmole/kg/day × 7) was 86% and the “Inhibition of tumor growth” value (Meth A fibrosarcoma [4]; 3.0 mmole/kg/day × 7) was 79%. The “antitumor activity compared with 5'-deoxy-5-fluorouridine” value (Meth A fibrosarcoma [4]; words) was “more potent in the antitumor activity”, the inhibition in vivo at 1500 µmol/kg (Meth A fibrosarcoma [2]) was 86% and the inhibition in vivo at 3000 µmol/kg (Meth A fibrosarcoma [2]) was 79%.

In the case of `CCCCC(=O)Nc1nc(=O)n([C@@H]2O[C@H](C)[C@@H](O)[C@H]2O)cc1F` [Example 46, 5'-deoxy-5-fluoro-N^4-valerylcytidine], the LD50 (in vivo) was greater than 2000 mg/kg, the inhibition in vivo at 1500 µmol/kg (Meth A fibrosarcoma [2]) was 51% and the inhibition in vivo at 3000 µmol/kg (Meth A fibrosarcoma [2]) was 66%.

Compound `C[C@H]1O[C@@H](n2cc(F)c(NC(=O)C3CCCCC3)nc2=O)[C@H](O)[C@@H]1O` [Example 12, N^4-cyclohexanecarbonyl-5'-deoxy-5-fluorocytidine] has an inhibition in vivo at 800 µmol/kg (Sarcoma 180 [1]) of 40% and an inhibition in vivo at 1500 µmol/kg (Sarcoma 180 [1]) of 73%.

`C[C@H]1O[C@@H](n2cc(F)c(NC(=O)c3cccnc3)nc2=O)[C@H](O)[C@@H]1O` [Example 34] gave an LD50 (in vivo) greater than 2000 mg/kg, an inhibition in vivo at 1300 µmol/kg (Meth A fibrosarcoma [2]; 1.3 mmole/kg/day × 7, p.o.) of 75% and an inhibition in vivo at 2600 µmol/kg (Meth A fibrosarcoma [2]; 2.6 mmole/kg/day × 7, p.o.) of 92%.

With `C[C@H]1O[C@@H](n2cc(F)c(N)nc2=O)[C@H](O)[C@@H]1O` [5'-deoxy-5-fluorocytidine] the “Therapeutic index (EDmax/ED50), UV 2237” value (UV 2237 fibrosarcoma) was 1.0, the “Therapeutic index (EDmax/ED50), S180” value (Sarcoma 180 [5]) was 2.0 and the “Therapeutic index (EDmax/ED50), Meth A” value (Meth A fibrosarcoma [6]) was 1.2.

With `CCCCCCCCCCCCCCCCCC(=O)Nc1nc(=O)n([C@@H]2O[C@H](C)[C@@H](O)[C@H]2O)cc1F` [Example 8, 5'-deoxy-5-fluoro-N^4-octadecanoylcytidine] the inhibition in vivo at 1400 µmol/kg (Sarcoma 180 [1]) was 20% and the inhibition in vivo at 2700 µmol/kg (Sarcoma 180 [1]) was 77%.

`C[C@H]1O[C@@H](n2cc(F)c(NC(=O)/C=C/c3ccccc3)nc2=O)[C@H](O)[C@@H]1O` [Example 15, N^4-cinnamoyl-5'-deoxy-5-fluorocytidine] showed an inhibition in vivo at 800 µmol/kg (Sarcoma 180 [1]) of 47% and an inhibition in vivo at 1500 µmol/kg (Sarcoma 180 [1]) of 62%.

Compound `CC(C)C(=O)Nc1nc(=O)n([C@@H]2O[C@H](C)[C@@H](O)[C@H]2O)cc1F` [Example 9, 5'-deoxy-5-fluoro-N^4-isobutyrylcytidine] has an LD50 (in vivo) greater than 2000 mg/kg, an inhibition in vivo at 1400 µmol/kg (Sarcoma 180 [1]) of 76% and an inhibition in vivo at 2700 µmol/kg (Sarcoma 180 [1]) of 96%.

For `C[C@H]1O[C@@H](n2cc(F)c(NC(=O)C3CC3)nc2=O)[C@H](O)[C@@H]1O` [Example 11, N^4-cyclopropanecarbonyl-5'-deoxy-5-fluorocytidine], the inhibition in vivo at 800 µmol/kg (Sarcoma 180 [1]) was 69% and the inhibition in vivo at 1500 µmol/kg (Sarcoma 180 [1]) was 90%.

Compound `CC(=O)Nc1nc(=O)n([C@@H]2O[C@H](C)[C@@H](O)[C@H]2O)cc1F` [Example 2, N^4-acetyl-5'-deoxy-5-fluorocytidine] has an inhibition in vivo at 1500 µmol/kg (Sarcoma 180 [1]) of 84% and an inhibition in vivo at 3000 µmol/kg (Sarcoma 180 [1]) of 91%.

Compound `Cc1ccc(C(=O)Nc2nc(=O)n([C@@H]3O[C@H](C)[C@@H](O)[C@H]3O)cc2F)cc1` [Example 17] has an inhibition in vivo at 1300 µmol/kg (Sarcoma 180 [1]; 1.3 mmole/kg/day × 7, p.o.) of 75% and an inhibition in vivo at 2600 µmol/kg (Sarcoma 180 [1]; 2.6 mmole/kg/day × 7, p.o.) of 92%.

In the case of `C[C@H]1O[C@@H](n2cc(F)c(NC(=O)C34CC5CC(CC(C5)C3)C4)nc2=O)[C@H](O)[C@@H]1O` [Example 13, N^4-(1-adamantanecarbonyl)-5'-deoxy-5-fluorocytidine], the inhibition in vivo at 800 µmol/kg (Sarcoma 180 [1]) was 28% and the inhibition in vivo at 1500 µmol/kg (Sarcoma 180 [1]) was 66%.

`CCCCCCCCC(=O)Nc1nc(=O)n([C@@H]2O[C@H](C)[C@@H](O)[C@H]2O)cc1F` [Example 6, 5'-deoxy-5-fluoro-N^4-nonanoylcytidine] showed an inhibition in vivo at 500 µmol/kg (Sarcoma 180 [1]) of 28% and an inhibition in vivo at 1500 µmol/kg (Sarcoma 180 [1]) of 76%.

With `C[C@H]1O[C@@H](n2cc(F)c(NC(=O)C(C)(C)C)nc2=O)[C@H](O)[C@@H]1O` [Example 10, 5'-deoxy-5-fluoro-N^4-pivaloylcytidine] the inhibition in vivo at 1500 µmol/kg (Sarcoma 180 [1]) was 74% and the inhibition in vivo at 3000 µmol/kg (Sarcoma 180 [1]) was 97%.

Work on `C[C@H]1O[C@@H](n2cc(F)c(NC(=O)c3ccccc3)nc2=O)[C@H](O)[C@@H]1O` [Example 16, N^4-benzoyl-5'-deoxy-5-fluorocytidine] yielded an inhibition in vivo at 800 µmol/kg (Meth A fibrosarcoma [2]) of 38% and an inhibition in vivo at 1500 µmol/kg (Meth A fibrosarcoma [2]) of 58%.

With `C[C@H]1O[C@@H](n2cc(F)c(NC(=O)c3cccc(Cl)c3)nc2=O)[C@H](O)[C@@H]1O` [Example 21] the inhibition in vivo at 800 µmol/kg (Meth A fibrosarcoma [2]) was 17% and the inhibition in vivo at 1500 µmol/kg (Meth A fibrosarcoma [2]) was 60%.

`C[C@H]1O[C@@H](n2cc(F)c(NC(=O)c3ccccc3Cl)nc2=O)[C@H](O)[C@@H]1O` [Example 22] gave an inhibition in vivo at 1500 µmol/kg (Meth A fibrosarcoma [2]) of 42% and an inhibition in vivo at 3000 µmol/kg (Meth A fibrosarcoma [2]) of 42%.

`C[C@H]1O[C@@H](n2cc(F)c(NC(=O)CCc3ccccc3)nc2=O)[C@H](O)[C@@H]1O` [Example 52] gave an inhibition in vivo at 800 µmol/kg (Meth A fibrosarcoma [2]) of 41% and an inhibition in vivo at 1500 µmol/kg (Meth A fibrosarcoma [2]) of 51%.

Compound `C[C@H]1O[C@@H](n2cc(F)c(NC(=O)c3ccc4ccccc4c3)nc2=O)[C@H](O)[C@@H]1O` [Example 40, 5'-deoxy-5-fluoro-N^4-(2-naphthoyl)cytidine] has an inhibition in vivo at 800 µmol/kg (Meth A fibrosarcoma [2]) of 41% and an inhibition in vivo at 1500 µmol/kg (Meth A fibrosarcoma [2]) of 57%.

Work on `C[C@H]1O[C@@H](n2cc(F)c(NC(=O)c3cccs3)nc2=O)[C@H](O)[C@@H]1O` [Example 37, 5'-deoxy-5-fluoro-N^4-(2-thenoyl)cytidine] yielded an inhibition in vivo at 1500 µmol/kg (Meth A fibrosarcoma [2]) of 59% and an inhibition in vivo at 3000 µmol/kg (Meth A fibrosarcoma [2]) of 86%.

With `CCSC(=O)Nc1nc(=O)n([C@@H]2O[C@H](C)[C@@H](O)[C@H]2O)cc1F` [Example 44, 5'-deoxy-N^4-(ethylthio)carbonyl-5-fluorocytidine] the inhibition in vivo at 1500 µmol/kg (Meth A fibrosarcoma [2]) was 38% and the inhibition in vivo at 3000 µmol/kg (Meth A fibrosarcoma [2]) was 66%.

Work on `COc1ccc(C(=O)Nc2nc(=O)n([C@@H]3O[C@H](C)[C@@H](O)[C@H]3O)cc2F)cc1OC` [Example 26] yielded an inhibition in vivo at 1500 µmol/kg (Meth A fibrosarcoma [2]) of 37% and an inhibition in vivo at 3000 µmol/kg (Meth A fibrosarcoma [2]) of 58%.

With `CCC(=O)Nc1nc(=O)n([C@@H]2O[C@H](C)[C@@H](O)[C@H]2O)cc1F` [Example 45, 5'-deoxy-5-fluoro-N^4-propionylcytidine] the inhibition in vivo at 1500 µmol/kg (Meth A fibrosarcoma [2]) was 49% and the inhibition in vivo at 3000 µmol/kg (Meth A fibrosarcoma [2]) was 71%.
